The source of these data is US12478634B2, “Compositions and methods for treating muscular dystrophy and other disorders” (The Charlotte Mecklenburg Hospital Authority, priority 2016, dated 2025).

Assay [1] deals with FKRP and LARGE transcripts. The experiment in a line: Quantitative real-time PCR of FKRP and LARGE transcripts. The class given is in vivo, mouse. As to conditions: cardiac muscle, limb muscle and diaphragm. The protocol: Quantitative reverse transcriptase PCR assay. Tissues were collected from heart, diaphragm and tibialis anterior. RNA was extracted using TRIzol (Invitrogen) following the supplied protocol. Final RNA pellet was re-suspended in 20 μl RNAse-nuclease free water. Final RNA concentration was determined using Nanodrop 2000c. One […] of RNA was subsequently converted to cDNA using the High-Capacity RNA-to-cDNA™ Kit (Applied Biosystems) following the supplied protocol. cDNA was then used for quantitative real-time PCR using the mouse FKRP-FAM (Mm00557870 ml) and LARGE-FAM (Mm00521885_ml) taqman assay with primer limited GAPDH-VIC (Mm99999915_g1) as the internal control and TaqMan® Universal Master Mix II, with UNG (Life Technologies). […] Results of FKRP and LARGE transcript were calculated and expressed as 2^−ΔΔCt and compared across tissues and animals.
For orientation: Quantitative PCR measures a nucleic acid by following its amplification.

For assay [2], the system named is epithelial cells. Description: IIH6 blot of glycosylated α-DG from treated epithelial cells. The assay is classed as cell-based. Conditions: 3 days culture with agent. Here is the method:
Lane 1, control untreated cells; Lane 4, cells treated with ribulose-5-phosphate; Lane 5, cells treated with glucose. […] Cells are grown in culture medium and active reagents were added one day later and culture for further 3 days with the active agent. The cells were then collected, homogenized, blotted onto membrane and detected with 1H6 antibody for the expression of glycosylated a-DG. The black large spot represents the expression of the glycosylated a-DG, with higher intensity indicating higher levels.

Assay [3] relates to epithelial cells. Description: IIH6 membrane staining of glycosylated α-DG in treated epithelial cells. As to conditions: 3 days culture with agent, vs control. The class given is cell-based. The protocol: The white lines represent the membrane staining with the antibody. […] Cells are grown in culture medium and active reagents were added one day later and culture for further 3 days with the described concentration. The cells were then washed, fixed and stained with IIH6 antibody for the expression of glycosylated a-DG. The positive signals present as membrane staining (white lines and circles here) which are only detected in the majority of the treated samples, but hardly seen in the control.

The subject of assay [4] is MCF-7 cells. Description: FACS for expression of glycosylated alpha-DG after ribitol treatment. The class given is cell-based. As to conditions: MCF-7, 10 mM ribitol for 3 days; untreated controls 45%. The protocol:
FIG. 1. Fluorescence-activated cell sorting (FACS) for the enhanced expression of glycosylated alpha-DG after ribitol treatment. The breast cancer cell line MCF-7 was seeded in T25 culture flasks and cultured to 75% confluence in DMEM 10% FBS, and then treated with 10 mM ribitol in the same growth medium for 3 days. The cells were then collected by gentle scrapping and washed twice with PBS. The cells were resuspended in 100 microliter PBS and stained with monoclonal antibody IIH6 (Millipore EMD, 1:100 dilution) for 40 minutes and detected with secondary Alexa 594-labeled goat anti-mouse IgM (Invitrogen). The stained cells were washed and then FACS analyzed for the percentage of positive cells and the signal intensity (Alexa594.007). […]
Fluorescence-activated cell sorting (FACS) was used to show enhanced expression of glycosylated alpha-DG after ribitol treatment. […] The cells were resuspended in 100 microliter PBS and stained with monoclonal antibody IIH6 (Millipore EMD, 1:100 dilution) for 40 minutes and detected with secondary Alexa 594-labeled goat anti-mouse IgM (Invitrogen). The stained cells were washed and then FACS analyzed for the percentage of positive cells and the signal intensity (Alexa594.007). […]

Take `OC[C@@H](O)[C@@H](O)[C@@H](O)CO` [ribitol]: the “FKRP and LARGE transcript levels, treated vs untreated” value in assay [1] is given as “No statistically significant difference”. For the same molecule, the “functionally glycosylated alpha-DG on blot” value in assay [2] was “observed visually”. In addition, the “glycosylated α-DG membrane staining (IIH6)” value in assay [3] is on record as “positive signals are identified in the majority of the cells”. The “positive cells for glycosylated alpha-DG (IIH6 antibody)” value in assay [4] stood at 82%.

As for `O=C(CO)[C@H](O)[C@H](O)CO` [ribulose], in assay [2], the “functionally glycosylated alpha-DG on blot” value was “observed visually”. Further, the “glycosylated α-DG membrane staining (IIH6)” value in assay [3] is recorded as “positive signals are identified in the majority of the cells”.

For the molecule `Nc1ccn([C@@H]2O[C@H](COP(=O)(O)OP(=O)(O)OC[C@@H](O)[C@@H](O)[C@@H](O)CO)[C@@H](O)[C@H]2O)c(=O)n1` [CDP-ribitol], the “glycosylated α-DG membrane staining (IIH6)” value in assay [3] is reported as “positive signals are identified in the majority of the cells”.

Consider `O=C(CO)[C@H](O)[C@H](O)COP(=O)(O)O` [ribulose-5-phosphate, reference compound], for which, in assay [2], the “functionally glycosylated alpha-DG on blot” value is reported as “barely detectable”.
